Assay results published in article PMC5290327, “SC83288 is a clinical development candidate for the treatment of severe malaria” (Nature Communications, 2017).
Values after ≈ are worked out from the molar mass of the structure shown.

Columns and labels:
[1] = tested on: cytoplasmic free Ca2+ in P. falciparum HB3 trophozoites; experiment: Ca2+ live imaging, Fluo-4; conditions: SC compounds 10 and 20 μM; CPA 10 μM
Plasmodium vinckei = experiment: Rodent malaria model; type: in vivo; conditions: P. vinckei, 30 mg kg-1 i.p. 1x4 days
Text: The two SC compounds were also active in the Plasmodium vinckei rodent malaria model system.

Permeability assay = type: in vitro ADME; conditions: human; CACO 2 cells, 10 μM, apical side, 2 h
Procedure: The study was conducted by Cyprotex (Macclesfield, United Kingdom). CACO 2 cells (Sigma-Aldrich, catalogue: 86010202) were seeded on Millipore Millicell plates and formed a confluent monolayer over 20 days before the experiment. On day 20, the tested compounds at a final concentration of 10 μM were added to the apical side of the membrane. The transport of the compound across the monolayer was monitored over a 2 h period by liquid chromatography (LC)–MS/MS quantification. The permeability coefficient (Papp) was calculated from the following equation: [drawing 1] , where dQ/dt is the rate of permeation of the drug across the cells, C0 the donor compartment concentration at time zero and A the area of the cell monolayer. C0 was obtained from analysis of the dosing solution at the start of the experiment.

P. falciparum strain Dd2 = experiment: Growth inhibition assay, asexual blood stages; type: cell-based, Plasmodium falciparum; conditions: Plasmodium falciparum
Solubility in water = conditions: water
PK study = type: in vivo, rat; conditions: rat, plasma, po; rats
Procedure: On the treatment day, all animals were weighed and the dosing volume was calculated for each individual animal according to its actual body weight. All animal were dosed once. Blood samples were taken at different time points and plasma was collected after centrifugation (10,000g, 10 min, 4 °C). Plasma samples were analysed by LC–MS/MS. […] All relevant observations were recorded. The PK studies in cynomolgus monkeys and beagle dogs were performed by the Laboratory of Pharmacology and Toxicology (LPT), Hamburg, and PK and toxicity studies in mice and rats were performed by the 4SC Discovery GmbH, Munich. PK parameters were obtained by a non-compartment analysis, using Kinetica 4.1 (Thermo Scientific).

HepG2 cells = experiment: Cytotoxicity; conditions: 10 μM
[2] = In vitro metabolism in liver microsomes; conditions: human microsome assay
P. chabaudi = experiment: Rodent malaria model; type: in vivo; conditions: 10 mg kg-1 i.v. 1x4 days
Plasmodium berghei = experiment: Rodent malaria model; type: in vivo; conditions: for Outcome: P. berghei
Procedure: This was the case for both an in vivo 4 day dosing regimen of 30 mg kg^−1 per day and an ex vivo one-cycle growth inhibition assay. […] Differential therapeutic efficacy in various rodent model systems is a well-established phenomenon and is typically associated with charged compounds, such as positively charged amidines and negatively charged phosphoric acid or carboxylic acid containing drugs. The phenomenon is explained based on selective uptake of charged compounds through parasite-induced channels, termed new permeation pathways, in the host cell plasma membrane and species-specific characteristics of the new permeation pathways.

Dd2 SC81458 resistant = experiment: Growth inhibition assay; type: cell-based; conditions: Plasmodium falciparum
Procedure: (§1) To identify the mode of action/mechanism of resistance of SC81458 and […], a chemogenomic approach was used, whereby resistant parasites were obtained by in vitro drug pressure selection and subjected to whole-genome sequencing to identify the genetic basis of resistance. Three independent selections of Dd2 parasites at an initial population of 10^10 infected red blood cells (performed in 150 ml flasks, 2% haematocrit) were subjected to SC81458 or SC83288 at a starting concentration of 50 nM. […] Drug resistance was confirmed by measuring the IC50s, after two consecutive cycles in absence of the drug, using a SYBRGreen growth inhibition assay as previously described. After up to 200 days of drug pressure, the drug-resistant lines were clones by limiting dilution for single-cell isolation and genomic DNA was extracted using the DNeasy Blood&Tissue kit (Qiagen, USA) and subjected to ultra-deep sequencing.

Dd2 SC83288 resistant = experiment: Growth inhibition assay; type: cell-based; conditions: Plasmodium falciparum
Procedure: as §1

[3] = tested on: Dd2 P. falciparum parasites; experiment: In vitro parasite reduction ratio assay (Sanz protocol); type: cell-based, Plasmodium falciparum

CC(=O)C1=C(O)[C@@H]2[C@H]3c4c[nH]c5cccc(c45)C[C@H]3C(C)(C)N2C1=O [CPA, cyclopiazonic acid, reference compound]
effect on cytoplasmic free Ca^2+ [1]: induced a strong Ca^2+ responses

N=C(N)c1cccc(NC(=O)Nc2ccc(S(=O)(=O)NCc3ccc(S(N)(=O)=O)cc3)cc2)c1 [SC09064]
Outcome (Plasmodium vinckei): inactive | Papp at 2 h, 10 μM (Permeability assay): 0.28 ×10⁻⁶ cm/s | Ames test (Ames test): negative | IC50 (P. falciparum strain Dd2; DD2, 72 h, Dd2, standard proliferation assay, 72 h exposure): 10 ± 3 nM | solubility (Solubility in water): 316 µg/mL (≈ 629 µM) | bioavailability (PK study): 3% | adverse effects on HepG2 cells (HepG2 cells): no adverse effects | metabolic stability, residual after 1 h of incubation [2]: 65% | Outcome (P. chabaudi): inactive | Outcome (Plasmodium berghei; 10 mg kg-1 i.v. 1x4 days): inactive | Outcome (Plasmodium berghei; 50 mg kg-1 i.p. 1x4 days): inactive | activity against P. berghei (Plasmodium berghei; in vivo): no activity

O=C1C(O)=C([C@H]2CC[C@H](c3ccc(Cl)cc3)CC2)C(=O)c2ccccc21 [atovaquone, reference compound]
IC50 (P. falciparum strain Dd2; DD2, Dd2, Supplementary Table 11): 0.6 ± 0.1 nM | IC50 (Dd2 SC81458 resistant): 0.3 ± 0.1 nM | IC50 (Dd2 SC83288 resistant): 0.8 ± 0.1 nM | In vitro PCT99.9% ([3]; 10 times IC50, Dd2): 89 ± 7 h | In vitro lag phase ([3]; 10 times IC50, Dd2): > 24 h | In vitro logPRR ([3]; 10 times IC50, Dd2, over 48 h): 2.1±0.4
